The values below come from the supplement of paper PMC10627819.

What all share (assay): Bliss interaction score (quartile over a dose matrix) (fitness difference); higher = more antagonism (negative = synergy)
One assay concerns S. aureus DSM 20231. Summed up: (§1)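 Quartiles of the Bliss score were taken over technical, biological and donor/recipient replicates. That score is observed fitness minus the product of the single-drug fitness values, which were inferred from combination data. Fitness itself is OD595 at entry into stationary phase divided by the plate's robust no-drug mean, with a cap at 1.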
The next assay has as its system B. subtilis 168. In outline: as §1
The subject of the next assay is S. pneumoniae D39V. In outline:
as §1

Another assay deals with S. aureus Newman. Summed up:
as §1
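Further: first quartile when negative (synergy) and third quartile when positive (antagonism).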

Turning to `CO/N=C(\C(=O)N[C@@H]1C(=O)N2C(C(=O)O)=C(COC(C)=O)CS[C@H]12)c1csc(N)n1` [Cefotaxime] + CN[C@H](CC(C)C)C(=O)N[C@H]1C(=O)N[C@@H](CC(N)=O)C(=O)N[C@H]2C(=O)N[C@H]3C(=O)N[C@H](C(=O)N[C@H](C(=O)O)c4cc(O)cc(O)c4-c4cc3ccc4O)[C@H](O[C@H]3C[C@](C)(N)[C@@H](O)[C@H](C)O3)c3ccc(c(Cl)c3)Oc3cc2cc(c3O[C@@H]2O[C@H](CO)[C@@H](O)[C@H](O)[C@H]2O[C@H]2C[C@](C)(NCc3ccc(-c4ccc(Cl)cc4)cc3)[C@@H](O)[C@H](C)O2)Oc2ccc(cc2Cl)[C@H]1O [Oritavancin], the Bliss interaction score with S. aureus DSM 20231 was 0.0947; with B. subtilis 168, 0.0516; with S. pneumoniae D39V, -0.106; in the assay with S. aureus Newman, 0.0965.

`CO/N=C(\C(=O)N[C@@H]1C(=O)N2C(C(=O)O)=C(COC(C)=O)CS[C@H]12)c1csc(N)n1` [Cefotaxime] + CO[C@@]12[C@H](COC(N)=O)C3=C(C(=O)C(C)=C(N)C3=O)N1C[C@@H]1N[C@@H]12 [MitomycinC]: the Bliss interaction score with S. aureus DSM 20231 was 0.0387; with B. subtilis 168 it was -0.135; in the assay with S. pneumoniae D39V, 0.118; in the assay with S. aureus Newman, 0.0256.

In the case of `CO/N=C(\C(=O)N[C@@H]1C(=O)N2C(C(=O)O)=C(COC(C)=O)CS[C@H]12)c1csc(N)n1` [Cefotaxime] + N[C@@H]1CONC1=O [CycloserineD], the Bliss interaction score with S. aureus DSM 20231 was 0.0848; with B. subtilis 168, 0.0869; in the assay with S. pneumoniae D39V, -0.0787; in the assay on S. aureus Newman, 0.0643.

In the case of `CO/N=C(\C(=O)N[C@@H]1C(=O)N2C(C(=O)O)=C(COC(C)=O)CS[C@H]12)c1csc(N)n1` [Cefotaxime] + O=C(N[C@H](CO)[C@H](O)c1ccc([N+](=O)[O-])cc1)C(Cl)Cl [Chloramphenicol], the Bliss interaction score with S. aureus DSM 20231 is 0.106; in the assay with B. subtilis 168, -0.0771; in the assay on S. pneumoniae D39V it was 0.158; in the assay with S. aureus Newman it was -0.0902.

As for `CO/N=C(\C(=O)N[C@@H]1C(=O)N2C(C(=O)O)=C(COC(C)=O)CS[C@H]12)c1csc(N)n1` [Cefotaxime] + O=C(O)[C@H]1/C(=C/CO)O[C@@H]2CC(=O)N21 [Clavulanic], the Bliss interaction score was 0.176 in the assay on S. aureus DSM 20231, -0.0436 with B. subtilis 168, -0.0534 with S. pneumoniae D39V and 0.279 in the assay on S. aureus Newman.

Consider `CO/N=C(\C(=O)N[C@@H]1C(=O)N2C(C(=O)O)=C(COC(C)=O)CS[C@H]12)c1csc(N)n1` [Cefotaxime] + O=C(O)c1cn(C2CC2)c2cc(N3CCNCC3)c(F)cc2c1=O [Ciprofloxacin], for which the Bliss interaction score in the assay on S. aureus DSM 20231 is -0.0413; in the assay on B. subtilis 168 it was -0.144; in the assay with S. pneumoniae D39V, 0.154; with S. aureus Newman, 0.0294.

In the case of `CO/N=C(\C(=O)N[C@@H]1C(=O)N2C(C(=O)O)=C(COC(C)=O)CS[C@H]12)c1csc(N)n1` [Cefotaxime] + Oc1cc(Cl)ccc1Oc1ccc(Cl)cc1Cl [Triclosan], the Bliss interaction score in the assay on S. aureus DSM 20231 is 0.0696; in the assay with B. subtilis 168, 0.0558; in the assay with S. pneumoniae D39V, -0.0421; in the assay with S. aureus Newman it was 0.033.

Consider `CO/N=C(\C(=O)N[C@@H]1C(=O)N2C(C(=O)O)=C(COC(N)=O)CS[C@H]12)c1ccco1` [Cefuroxime] + CC1(C)S[C@@H]2[C@H](NC(=O)Cc3ccccc3)C(=O)N2[C@H]1C(=O)O [PenicillinG], for which the Bliss interaction score was -0.154 with S. aureus DSM 20231, -0.0758 in the assay on B. subtilis 168, -0.0476 in the assay with S. pneumoniae D39V and 0.102 in the assay on S. aureus Newman.

For the molecule `CO/N=C(\C(=O)N[C@@H]1C(=O)N2C(C(=O)O)=C(COC(N)=O)CS[C@H]12)c1ccco1` [Cefuroxime] + CC(=O)O[C@H]1C[C@@]2(C)[C@@H](C[C@@H](O)[C@H]3[C@@]4(C)CC[C@@H](O)[C@@H](C)[C@@H]4CC[C@@]32C)/C1=C(\CCC=C(C)C)C(=O)O [Fusidic acid], the Bliss interaction score with S. aureus DSM 20231 is -0.281; in the assay with B. subtilis 168, 0.137; in the assay with S. pneumoniae D39V, 0.0348; in the assay on S. aureus Newman, 0.104.

For `CO/N=C(\C(=O)N[C@@H]1C(=O)N2C(C(=O)O)=C(COC(N)=O)CS[C@H]12)c1ccco1` [Cefuroxime] + CCC[C@@H]1C[C@@H](C(=O)N[C@@H]([C@H]2O[C@H](SC)[C@H](O)[C@@H](O)[C@H]2O)[C@H](C)Cl)N(C)C1 [Clindamycin], the Bliss interaction score in the assay on S. aureus DSM 20231 is -0.156; in the assay on B. subtilis 168 it was -0.048; with S. pneumoniae D39V, 0.0539; in the assay on S. aureus Newman, -0.0892.

For the molecule `CO/N=C(\C(=O)N[C@@H]1C(=O)N2C(C(=O)O)=C(COC(N)=O)CS[C@H]12)c1ccco1` [Cefuroxime] + CC[C@H]1OC(=O)[C@H](C)C(=O)[C@H](C)[C@@H](O[C@@H]2O[C@H](C)C[C@H](N(C)C)[C@H]2O)[C@](C)(OC)C[C@@H](C)C(=O)[C@H](C)[C@H]2N(CCCCn3cnc(-c4cccnc4)c3)C(=O)O[C@]12C [Telithromycin], the Bliss interaction score was -0.0813 in the assay on S. aureus DSM 20231, 0.0752 with B. subtilis 168, 0.0493 in the assay with S. pneumoniae D39V and 0.272 in the assay on S. aureus Newman.

`CO/N=C(\C(=O)N[C@@H]1C(=O)N2C(C(=O)O)=C(COC(N)=O)CS[C@H]12)c1ccco1` [Cefuroxime] + CC[C@H]1OC(=O)[C@H](C)[C@@H](O[C@H]2C[C@@](C)(OC)[C@@H](O)[C@H](C)O2)[C@H](C)[C@@H](O[C@@H]2O[C@H](C)C[C@H](N(C)C)[C@H]2O)[C@](C)(O)C[C@@H](C)C(=O)[C@H](C)[C@@H](O)[C@]1(C)O [Erythromycin]: the Bliss interaction score with S. aureus DSM 20231 is -0.255; in the assay on B. subtilis 168 it was -0.0464; in the assay on S. pneumoniae D39V, 0.0365; in the assay with S. aureus Newman it was 0.0555.

With `CO/N=C(\C(=O)N[C@@H]1C(=O)N2C(C(=O)O)=C(COC(N)=O)CS[C@H]12)c1ccco1` [Cefuroxime] + CC[C@H]1OC(=O)[C@H](C)[C@@H](O[C@H]2C[C@@](C)(OC)[C@@H](O)[C@H](C)O2)[C@H](C)[C@@H](O[C@@H]2O[C@H](C)C[C@H](N(C)C)[C@H]2O)[C@](C)(OC)C[C@@H](C)C(=O)[C@H](C)[C@@H](O)[C@]1(C)O [Clarithromycin], the Bliss interaction score with S. aureus DSM 20231 is -0.249; with B. subtilis 168, -0.0354; in the assay with S. pneumoniae D39V it was 0.0629; in the assay with S. aureus Newman, 0.0734.

For the molecule `CO/N=C(\C(=O)N[C@@H]1C(=O)N2C(C(=O)O)=C(COC(N)=O)CS[C@H]12)c1ccco1` [Cefuroxime] + CN(C)[C@@H]1C(O)=C(C(N)=O)C(=O)[C@@]2(O)C(O)=C3C(=O)c4c(O)ccc(Cl)c4[C@@](C)(O)[C@H]3C[C@@H]12 [Clortetracycline], the Bliss interaction score in the assay on S. aureus DSM 20231 was -0.269; in the assay on B. subtilis 168, -0.0786; in the assay on S. pneumoniae D39V, 0.112; with S. aureus Newman, -0.0677.

Regarding `CO/N=C(\C(=O)N[C@@H]1C(=O)N2C(C(=O)O)=C(COC(N)=O)CS[C@H]12)c1ccco1` [Cefuroxime] + CN[C@H](CC(C)C)C(=O)N[C@H]1C(=O)N[C@@H](CC(N)=O)C(=O)N[C@H]2C(=O)N[C@H]3C(=O)N[C@H](C(=O)N[C@H](C(=O)O)c4cc(O)cc(O)c4-c4cc3ccc4O)[C@H](O[C@H]3C[C@](C)(N)[C@@H](O)[C@H](C)O3)c3ccc(c(Cl)c3)Oc3cc2cc(c3O[C@@H]2O[C@H](CO)[C@@H](O)[C@H](O)[C@H]2O[C@H]2C[C@](C)(NCc3ccc(-c4ccc(Cl)cc4)cc3)[C@@H](O)[C@H](C)O2)Oc2ccc(cc2Cl)[C@H]1O [Oritavancin], the Bliss interaction score is -0.0743 in the assay with S. aureus DSM 20231, -0.0309 with B. subtilis 168, 0.0536 in the assay on S. pneumoniae D39V and -0.103 in the assay with S. aureus Newman.
